# Laboratory results reported in patent US9303042B2, “Triazolothienopyrimidine compound inhibitors of urea transporters and methods of using inhibitors” (The Regents of the University of California, priority 2012, dated 2016).
# Where two headings read alike, the source gives them in different places.
# Tests used:
# [1] = In vitro metabolic stability in hepatic microsomes; assay type: in vitro ADME, rat; settings: for % Remaining after 10 min incubation with liver microsomes: NADPH, compound 5 μM; for metabolic stability (in words): hepatic microsomes
# Experimental: Compounds, each at 5 μM, were incubated for specified times at 37° C. with rat liver microsomes (1 mg protein/ml; Sigma-Aldrich, St. Louis, Mo.) in potassium phosphate buffer (100 mM) containing 1 mM NADPH. The mixture was then chilled on ice, and 0.5 ml of ice-cold ethyl acetate was added.
# UT-B = target: T1, UT-B (Mus musculus, UniProt Q8VHL0); test: Erythrocyte lysis assay of UT-B inhibition; assay type: cell-based; design: Screening was performed using mouse erythrocytes, which strongly express UT-B; endogenous in cells; host or cells: erythrocytes in whole blood of wild-type CD1 mice; settings: erythrocyte lysis assay, read-out: IC50
# T1 sequence (Q8VHL0 1-384): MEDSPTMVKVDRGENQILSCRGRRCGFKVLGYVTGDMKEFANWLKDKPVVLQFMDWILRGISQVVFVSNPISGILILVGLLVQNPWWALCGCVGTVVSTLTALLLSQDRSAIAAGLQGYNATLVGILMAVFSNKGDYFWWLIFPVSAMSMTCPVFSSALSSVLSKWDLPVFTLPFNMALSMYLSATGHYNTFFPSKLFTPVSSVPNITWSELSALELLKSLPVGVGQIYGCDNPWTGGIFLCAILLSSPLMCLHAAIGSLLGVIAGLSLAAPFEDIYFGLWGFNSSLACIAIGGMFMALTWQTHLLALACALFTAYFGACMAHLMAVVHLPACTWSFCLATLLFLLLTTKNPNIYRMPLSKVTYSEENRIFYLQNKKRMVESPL
# Experimental: Screening was performed using mouse erythrocytes, which strongly express UT-B and are highly water permeable because the cells also express aquaporin-1 (AQP1) water channels. The screening method involved assay of erythrocyte lysis in response to a large, outwardly directed gradient of acetamide, a urea analog that is transported efficiently by UT-B. A large, outwardly directed gradient of acetamide causes transient cell swelling, but little cell lysis, because UT-B-facilitated acetamide efflux limits water influx (see FIG. 1A). UT-B inhibition prevents acetamide efflux, allowing unopposed cell swelling and consequent cell lysis, which was recorded by reduced near-infrared light absorption at 710 nm.
# Primary screening was done using a collection of 100,000 diverse, drug-like compounds from commercial sources (ChemDiv, San Diego, Calif.; Asinex, Winston-Salem, N.C.). […] Vigorous mixing was achieved by repeated pipetting. Erythrocyte lysis was quantified by absorbance at 710 nm wavelength, made within 5 min after hypo-osmolar shock. […] For analysis of structure-activity relationships >900 commercially available analogs (ChemDiv and Asinex) were tested.
# [2] = Table 1, commercially available analogues
SMILES,% Remaining after 10 min incubation with liver microsomes [1] [%],IC50 (UT-B; [2]) [nM],metabolic stability (in words) [1],IC50 (UT-B) [nM]
"Cc1ccc(S(=O)(=O)c2nnn3c2nc(NCc2ccco2)c2sccc23)cc1C [Compound 2am, furan-2-ylmethyl-[3-(3,4-dimethyl-benzenesulfonyl)-thieno[2,3-e][1,2,3]triazolo[1,5-a]pyrimidin-5-yl]-amine]",<2,156,–,–
Cc1ccc(S(=O)(=O)c2nnn3c2nc(N2CCOCC2)c2sccc23)cc1C [Compound 2an],6,1710,–,–
"Cc1ccc(S(=O)(=O)c2nnn3c2nc(NCc2ccccc2)c2sccc23)cc1C [Compound 2ao, [3-(3,4-dimethyl-benzenesulfonyl)-thieno[2,3-e][1,2,3]triazolo[1,5-a]pyrimidin-5-yl]-benzyl-amine]",3,1000,–,–
"COc1ccccc1CNc1nc2c(S(=O)(=O)c3ccc(C)c(C)c3)nnn2c2ccsc12 [Compound 2as, [3-(3,4-dimethyl-benzenesulfonyl)-thieno[2,3-e][1,2,3]triazolo[1,5-a]pyrimidin-5-yl]-(2-methoxy-benzyl)-amine]",15,1040,–,–
"COc1ccc(CNc2nc3c(S(=O)(=O)c4ccc(C)c(C)c4)nnn3c3ccsc23)cc1 [Compound 2at, [3-(3,4-dimethyl-benzenesulfonyl)-thieno[2,3-e][1,2,3]triazolo[1,5-a]pyrimidin-5-yl]-(4-methoxy-benzyl)-amine]",12,1540,–,–
Cc1ccc(S(=O)(=O)c2nnn3c2nc(NCCC(C)C)c2sccc23)cc1C [Compound 2au],35,854,–,–
"CCOCCCNc1nc2c(S(=O)(=O)c3ccc(C)c(C)c3)nnn2c2ccsc12 [Compound 2aw, {3-[3,4-dimethyl-benzenesulfonyl]-thieno[2,3-e][1,2,3]triazolo[1,5-a]pyrimidin-5-yl}-3-ethoxylpropyl-amine]",2,520,–,–
Cc1ccc(S(=O)(=O)c2nnn3c2nc(N2CCCCC2)c2sccc23)cc1C [Compound 2az],<2,1760,–,–
"Cc1ccc(S(=O)(=O)c2nnn3c2nc(NCc2ccc(Cl)cc2)c2sccc23)cc1C [Compound 2bc, [3-(3,4-dimethyl-benzenesulfonyl)-thieno[2,3-e][1,2,3]triazolo[1,5-a]pyrimidin-5-yl]-(4-chloro-benzyl)-amine]",83,582,improved metabolic stability,–
"Cc1ccc(S(=O)(=O)c2nnn3c2nc(NCc2cccs2)c2sccc23)cc1C [Compound 2bd, {3-[3,4-dimethyl-benzenesulfonyl]-thieno[2,3-e][1,2,3]triazolo[1,5-a]pyrimidin-5-yl}-thiophen-2-ylmethyl-amine]",<2,37,–,–
"O=S(=O)(c1ccc(Cl)cc1)c1nnn2c1nc(NCc1ccco1)c1sccc12 [Compound 2bf, furan-2-ylmethyl-[3-(4-chloro-benzenesulfonyl)-thieno[2,3-e][1,2,3]triazolo[1,5-a]pyrimidin-5-yl]-amine]",21,1870,–,–
CCCCNc1nc2c(S(=O)(=O)c3ccc(Cl)cc3)nnn2c2ccsc12 [Compound 2bg],74,1260,–,–
"COCCNc1nc2c(S(=O)(=O)c3ccc(Cl)cc3)nnn2c2ccsc12 [Compound 2bh, {3-[4-chloro-benzenesulfonyl]-thieno[2,3-e][1,2,3]triazolo[1,5-a]pyrimidin-5-yl}-2-methoxyethyl-amine]",63,1910,–,–
"O=S(=O)(c1ccc(Cl)cc1)c1nnn2c1nc(NCc1cccs1)c1sccc12 [Compound 2bi, {3-[4-chloro-benzenesulfonyl]-thieno[2,3-e][1,2,3]triazolo[1,5-a]pyrimidin-5-yl}-thiophen-2-ylmethyl-amine]",52,214,–,–
CCCCNc1nc2c(S(=O)(=O)c3ccc(C(C)C)cc3)nnn2c2ccsc12 [Compound 2bm],<2,191,–,–
"COCCNc1nc2c(S(=O)(=O)c3ccc(C(C)C)cc3)nnn2c2ccsc12 [Compound 2bo, {3-[4-isopropyl-benzenesulfonyl]-thieno[2,3-e][1,2,3]triazolo[1,5-a]pyrimidin-5-yl}-2-methoxyethyl-amine]",14,711,–,–
"CCc1ccc(S(=O)(=O)c2nnn3c2nc(NCc2ccco2)c2sccc23)cc1 [Compound 2bp, furan-2-ylmethyl-[3-(4-ethyl-benzenesulfonyl)-thieno[2,3-e][1,2,3]triazolo[1,5-a]pyrimidin-5-yl]-amine]",12,–,–,239
"CCc1ccc(S(=O)(=O)c2nnn3c2nc(NCc2ccccc2)c2sccc23)cc1 [Compound 2br, [3-(4-ethyl-benzenesulfonyl)-thieno[2,3-e][1,2,3]triazolo[1,5-a]pyrimidin-5-yl]-benzyl-amine]",44,664,–,–
CCc1ccc(S(=O)(=O)c2nnn3c2nc(N(CC)CC)c2sccc23)cc1 [Compound 2bs],6,1770,–,–
"CCc1ccc(S(=O)(=O)c2nnn3c2nc(NCc2ccc(Cl)cc2)c2sccc23)cc1 [Compound 2bt, [3-(4-ethyl-benzenesulfonyl)-thieno[2,3-e][1,2,3]triazolo[1,5-a]pyrimidin-5-yl]-(4-chloro-benzyl)-amine]",81,374,improved metabolic stability,–
"CCc1ccc(S(=O)(=O)c2nnn3c2nc(NCC2CCCO2)c2sccc23)cc1 (stereo not shown) [Compound 2bu, tetrahydrofuran-2-ylmethyl-[3-(4-ethyl-benzenesulfonyl)-thieno[2,3-e][1,2,3]triazolo[1,5-a]pyrimidin-5-yl]-amine]",26,891,–,–
CCc1ccc(S(=O)(=O)c2nnn3c2nc(NCCC(C)C)c2sccc23)cc1 [Compound 2bv],59,662,–,–
"CCc1ccc(S(=O)(=O)c2nnn3c2nc(NC(C)c2ccccc2)c2sccc23)cc1 (stereo not shown) [Compound 2bw, [3-(4-ethyl-benzenesulfonyl)-thieno[2,3-e][1,2,3]triazolo[1,5-a]pyrimidin-5-yl]-(1-phenyl-1-methyl)methyl-amine]",34,585,–,–
"CCc1ccc(S(=O)(=O)c2nnn3c2nc(NCc2cccc(OC)c2)c2sccc23)cc1 [Compound 2bx, [3-(4-ethyl-benzenesulfonyl)-thieno[2,3-e][1,2,3]triazolo[1,5-a]pyrimidin-5-yl]-(3-methoxy-benzyl)-amine]",<2,291,–,–
"CCc1ccc(S(=O)(=O)c2nnn3c2nc(NCCOC)c2sccc23)cc1 [Compound 2by, {3-[4-ethyl-benzenesulfonyl]-thieno[2,3-e][1,2,3]triazolo[1,5-a]pyrimidin-5-yl}-2-methoxyethyl-amine]",<2,334,–,–
